Laboratory results published in ChEMBL document CHEMBL1201862, “PubChem BioAssay data set” (2004).
Activity calls are given as the source filed them.

Assays:
Estrogen receptor beta [1] = target: T1, Estrogen receptor beta (Homo sapiens, UniProt Q92731); test: blockers of SRC-3 recruitment to ERβ – biochemical, ELISA, streptavidin-HRP readout, orthogonal assay, confirmation (AID 1060)
Estrogen receptor beta [2] = target: T1, Estrogen receptor beta
[3] = viability of HCT116 lacking mutant beta-catenin – cell-based, human colon tumor, dose response (AID 1045); type: functional;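 also: HCT116 colon tumor cells with beta catenin knocked out; cells exposed to compound for 60 hours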
[4] = viability of PTEN-deleted HCT116 cells – cell-based, HCT116 PTEN knockout, dose response (AID 1047); type: functional;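 also: HCT116 colon tumor cells with PTEN knocked out; cells exposed to compound for 60 hours before readout; potency for loss of cell viability measured by luminescence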
[5] = target: T2, Dual specificity protein phosphatase 6 (Rattus norvegicus, UniProt Q64346); test: inhibition of rat DUSP6 enzyme activity – biochemical, in vitro, primary screen (AID 425)
T2 sequence (Q64346 whole entry): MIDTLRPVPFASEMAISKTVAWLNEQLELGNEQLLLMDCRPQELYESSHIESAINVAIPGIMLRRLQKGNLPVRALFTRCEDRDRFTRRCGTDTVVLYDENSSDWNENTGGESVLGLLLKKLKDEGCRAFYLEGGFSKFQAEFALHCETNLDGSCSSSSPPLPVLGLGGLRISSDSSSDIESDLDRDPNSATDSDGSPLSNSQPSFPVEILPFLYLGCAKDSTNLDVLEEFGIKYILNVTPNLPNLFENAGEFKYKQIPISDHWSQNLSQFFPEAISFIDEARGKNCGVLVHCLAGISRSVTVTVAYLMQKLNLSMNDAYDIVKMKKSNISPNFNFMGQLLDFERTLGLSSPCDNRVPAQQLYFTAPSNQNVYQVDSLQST

[6] = SNU-C1 cell viability reduction, dose response, CellTiter-Glo luminescence (AID 1117323); type: functional, cell-based
[7] = cytotoxicity toward Colo320 cells – cell-based, CellTiter-Glo luminescence, IC50, dose response (AID 1117334); type: functional; settings: COLO 320
[8] = cytotoxicity toward HT-29 cells – cell-based, CellTiter-Glo luminescence, IC50, dose response (AID 1117330); type: functional
[9] = Reduced DLD-1 viability, concentration-response, CellTiter-Glo luminescence (AID 1117352); type: functional
[10] = HPDE-C7 pancreatic duct cell viability loss – fluorescence, HTS (AID 430); type: functional, cell-based; settings: Homo sapiens
[11] = glucagon-like peptide-1 release potency in STC-1, concentration-response, half-maximal inhibitory concentration in the STC-1 line (AID 1117345); type: functional, cell-based
[12] = CellTiter-Glo luminescence survival assay, SW480 colon tumor line, concentration-response curve, half-maximal inhibitory concentration (AID 1117338); type: functional
[13] = cytotoxicity toward HCT116 cells – cell-based, CellTiter-Glo luminescence, IC50, dose response (AID 1117332); type: functional; settings: HCT-116
[14] = target: T3, Ubiquitin-conjugating enzyme E2 N (Homo sapiens, UniProt P61088); type: functional;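 also: Dose-response confirmation in a TR-FRET assay detecting UBC13-driven polyubiquitin chain formation, inhibition measured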
T3 sequence (P61088 whole entry): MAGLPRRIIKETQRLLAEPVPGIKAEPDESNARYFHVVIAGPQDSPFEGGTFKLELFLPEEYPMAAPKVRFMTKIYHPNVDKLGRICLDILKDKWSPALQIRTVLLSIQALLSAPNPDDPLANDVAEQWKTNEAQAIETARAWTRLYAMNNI

[15] = HCT116 cell viability decrease, GSK3B pretreatment – CellTiter-Glo, IC50, dose response (AID 1117339); type: functional; settings: HCT-116
[16] = Potency on glucagon-like peptide 1 release, dose-response in NCI-H716 cell line, half maximal inhibitory concentration (AID 1117344); type: functional, cell-based
[17] = RKO cell viability reduction, dose response, CellTiter-Glo luminescence (AID 1117322); type: functional
[18] = viability loss of HPDE-C7K cells – cell-based, fluorescence, HTS, primary screen (AID 431); type: functional; settings: Homo sapiens
[19] = target: Heat shock protein HSP 90-alpha (Homo sapiens, UniProt P07900); test: Luminescence-based dose response biochemical high throughput screening assay for inhibitors of the Heat Shock Protein 90 (HSP90). [Related pubchem assays: 1831 (Summary AID.), 1846 (Confirmation screen.), 1789 (Primary screen.)]
[20] = target: Aryl hydrocarbon receptor (Homo sapiens, UniProt P35869); test: Luminescence-based cell-based high throughput dose response assay for activators of the Aryl Hydrocarbon Receptor (AHR). [Related pubchem assays: 2796 (Primary screen (AHR activators in singlicate)), 2845 (Confirmation screen (AHR activators in triplicate)), 434939 (Counterscreen (PXR activators in triplicate)), 2804 (Summary (AHR activators))]; type: ADME
Chain of Aryl hydrocarbon receptor (P35869 whole entry): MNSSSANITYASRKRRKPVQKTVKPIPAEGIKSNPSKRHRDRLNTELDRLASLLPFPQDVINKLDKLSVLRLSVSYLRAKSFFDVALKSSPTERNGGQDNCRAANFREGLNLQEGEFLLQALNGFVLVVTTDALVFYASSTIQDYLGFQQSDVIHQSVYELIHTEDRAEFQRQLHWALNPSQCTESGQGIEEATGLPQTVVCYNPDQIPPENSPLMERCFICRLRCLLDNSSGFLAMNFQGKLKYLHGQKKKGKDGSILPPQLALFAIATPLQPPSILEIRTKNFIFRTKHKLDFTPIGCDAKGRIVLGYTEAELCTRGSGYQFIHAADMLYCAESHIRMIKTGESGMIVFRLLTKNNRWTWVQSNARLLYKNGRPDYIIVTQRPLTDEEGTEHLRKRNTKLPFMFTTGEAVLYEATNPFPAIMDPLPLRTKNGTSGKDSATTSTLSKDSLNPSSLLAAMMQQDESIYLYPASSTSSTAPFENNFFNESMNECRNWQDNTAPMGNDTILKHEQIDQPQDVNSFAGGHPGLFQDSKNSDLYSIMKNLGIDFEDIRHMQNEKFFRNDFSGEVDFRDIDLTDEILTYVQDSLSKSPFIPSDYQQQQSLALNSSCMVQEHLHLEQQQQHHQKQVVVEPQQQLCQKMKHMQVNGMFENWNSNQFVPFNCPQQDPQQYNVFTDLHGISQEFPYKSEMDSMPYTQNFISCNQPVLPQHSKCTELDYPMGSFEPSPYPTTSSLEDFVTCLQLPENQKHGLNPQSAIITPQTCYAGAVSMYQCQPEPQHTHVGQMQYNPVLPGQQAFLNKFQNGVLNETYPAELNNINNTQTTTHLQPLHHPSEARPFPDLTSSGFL

[21] = viability loss in THP-1 monocytes – THP-1 cells, cytotoxicity control for Vif-APOBEC3G degradation inhibitor project, dose response (AID 1117359); type: functional; settings: THP-1
Protein RecA = target: T4, Protein RecA (Mycobacterium tuberculosis, UniProt P9WHJ3); test: Fluorescence Cell-Free Homogeneous Dose Retest to Identify Inhibitors of RecA-Intein Splicing Activity. [Related pubchem assays (depositor defined):AID2097, AID2223, AID489010, AID492950]; type: functional
T4 sequence (P9WHJ3 whole entry): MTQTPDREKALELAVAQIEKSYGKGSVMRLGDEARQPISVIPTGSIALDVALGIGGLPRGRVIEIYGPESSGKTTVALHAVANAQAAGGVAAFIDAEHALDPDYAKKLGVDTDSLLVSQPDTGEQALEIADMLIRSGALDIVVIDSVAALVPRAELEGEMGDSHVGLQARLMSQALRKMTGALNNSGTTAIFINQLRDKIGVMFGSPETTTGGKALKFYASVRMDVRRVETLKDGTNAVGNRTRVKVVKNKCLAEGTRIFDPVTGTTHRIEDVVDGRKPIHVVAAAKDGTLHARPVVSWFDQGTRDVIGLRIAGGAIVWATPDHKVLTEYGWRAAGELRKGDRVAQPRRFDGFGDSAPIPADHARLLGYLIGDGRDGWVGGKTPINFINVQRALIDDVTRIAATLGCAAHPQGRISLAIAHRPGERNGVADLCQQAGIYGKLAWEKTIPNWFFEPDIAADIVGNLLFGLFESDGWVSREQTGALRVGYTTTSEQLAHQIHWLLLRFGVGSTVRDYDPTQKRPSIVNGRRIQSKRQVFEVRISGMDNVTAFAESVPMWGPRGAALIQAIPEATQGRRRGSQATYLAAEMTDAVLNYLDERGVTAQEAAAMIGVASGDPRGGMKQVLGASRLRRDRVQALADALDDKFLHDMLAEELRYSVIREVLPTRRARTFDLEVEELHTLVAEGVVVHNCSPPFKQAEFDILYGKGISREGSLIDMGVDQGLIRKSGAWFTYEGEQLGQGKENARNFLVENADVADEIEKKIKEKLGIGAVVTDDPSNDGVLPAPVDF

[22] = target: T5, Polyadenylate-binding protein 1 (Homo sapiens, UniProt P11940); test: MLLE domain peptide-binding blockers, IC50 – biochemical, fluorescence polarization, FITC-PAM2 peptide, dose response (AID 602259); type: functional; settings: read-out: IC50_Mean
T5 sequence (P11940 whole entry, the tested form may be a part): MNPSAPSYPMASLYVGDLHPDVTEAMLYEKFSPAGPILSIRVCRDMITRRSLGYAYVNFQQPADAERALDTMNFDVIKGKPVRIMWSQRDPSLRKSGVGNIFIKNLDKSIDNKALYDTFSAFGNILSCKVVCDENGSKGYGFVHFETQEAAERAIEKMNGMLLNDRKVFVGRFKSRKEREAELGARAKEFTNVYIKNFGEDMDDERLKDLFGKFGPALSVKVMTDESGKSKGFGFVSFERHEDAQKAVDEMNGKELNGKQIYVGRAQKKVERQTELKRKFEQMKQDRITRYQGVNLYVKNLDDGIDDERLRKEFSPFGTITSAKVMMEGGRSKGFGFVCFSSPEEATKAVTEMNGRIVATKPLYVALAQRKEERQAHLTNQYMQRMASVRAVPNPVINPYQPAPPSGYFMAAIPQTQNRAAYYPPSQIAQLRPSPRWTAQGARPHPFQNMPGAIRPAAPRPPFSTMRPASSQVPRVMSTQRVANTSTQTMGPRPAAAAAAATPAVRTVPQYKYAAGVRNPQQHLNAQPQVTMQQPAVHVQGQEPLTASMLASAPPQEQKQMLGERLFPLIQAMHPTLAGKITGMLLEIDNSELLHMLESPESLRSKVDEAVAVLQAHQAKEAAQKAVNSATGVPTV

[23] = target: T5, Polyadenylate-binding protein 1; test: MLLE binding blockers, Cy5 peptide tracer – biochemical, fluorescence polarization, Cy5-PAM2 peptide, secondary, miRNA deadenylation inhibitor project, dose response (AID 602260); type: functional; settings: read-out: IC50_Mean
Protein Tat = target: T6, Protein Tat (Human immunodeficiency virus type 1 group M subtype B (isolate HXB2)(HIV-1), UniProt P04608); type: functional;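 also: tat binding to TAR RNA read out by fluorescence polarization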
T6 sequence (P04608 whole entry): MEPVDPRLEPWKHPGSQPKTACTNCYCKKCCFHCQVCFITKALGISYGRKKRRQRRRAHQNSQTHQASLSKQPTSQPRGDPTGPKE

[24] = target: T7, Rac GTPase-activating protein 1 (Homo sapiens, UniProt Q9H0H5); test: blockers of MgcRacGAP-driven Rac1 GTP hydrolysis – biochemical, ADP Hunter fluorescence, primary and confirmatory, confirmation (AID 624330); type: functional
T7 sequence (Q9H0H5 whole entry): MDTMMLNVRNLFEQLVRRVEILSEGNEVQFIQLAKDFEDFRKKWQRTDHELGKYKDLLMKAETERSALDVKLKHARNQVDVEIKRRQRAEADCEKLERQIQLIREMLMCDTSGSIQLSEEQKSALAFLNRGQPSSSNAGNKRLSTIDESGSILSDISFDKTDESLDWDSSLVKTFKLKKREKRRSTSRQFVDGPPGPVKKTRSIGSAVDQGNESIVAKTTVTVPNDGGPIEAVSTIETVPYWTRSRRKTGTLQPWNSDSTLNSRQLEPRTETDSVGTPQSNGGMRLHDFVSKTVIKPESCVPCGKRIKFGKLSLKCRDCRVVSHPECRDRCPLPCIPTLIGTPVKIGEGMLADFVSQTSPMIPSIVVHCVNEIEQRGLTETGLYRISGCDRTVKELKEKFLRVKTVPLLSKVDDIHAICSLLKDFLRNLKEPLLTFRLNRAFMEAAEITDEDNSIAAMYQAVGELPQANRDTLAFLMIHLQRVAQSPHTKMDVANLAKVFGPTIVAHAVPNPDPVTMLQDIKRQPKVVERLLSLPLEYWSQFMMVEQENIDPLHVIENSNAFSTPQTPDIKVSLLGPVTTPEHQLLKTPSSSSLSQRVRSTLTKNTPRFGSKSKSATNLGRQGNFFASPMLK

[25] = HIV-1 Vif–A3G interaction blockers – biochemical, TR-FRET, GST-Vif 1-94, biotin-A3G peptide, dose response retest, primary screen (AID 1117319); type: functional;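 also: TR-FRET signal of purified GST-Vif binding a biotinylated A3G peptide; inhibitors lower the FRET signal by blocking Vif and A3G binding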
H4 = test: Luminescence Cell-Based Dose Response HTS to Identify Activators of 5'UTR Stem-Loop Driven Prion Protein mRNA Translation in H4 Neuroglioblastoma Cells. [Related pubchem assays: 1829 (Project Summary), 1814 (Primary HTS)]; type: functional; settings: Homo sapiens
[26] = Luminescence Cell-Based Dose Confirmation to Identify Activators of 5'UTR Stem-Loop Driven Alpha-Synuclein mRNA Translation in H4 Neuroglioblastoma Cells. [Related pubchem assays: 1829 (Project Summary), 1814 (Primary HTS)]; type: functional
[27] = Luminescence Cell-Based Dose Response to Identify Activators of 5'UTR Stem-Loop Driven Prion Protein mRNA Translation in H4-C Neuroglioblastoma Cells. [Related pubchem assays: 1829 (Project Summary), 1814 (Primary HTS)]; type: functional
[28] = Luminescence Cell-Based Dose Response HTS to Identify Activators of Luciferase Translation or Activity in H4 […] Cells. [Related pubchem assays: 1829 (Project Summary), 1814 (Primary HTS)]; type: functional
[29] = Luminescence Cell-Based Dose Response to Identify Activators of Luciferase Translation or Activity in H4-C Neuroglioblastoma Cells. [Related pubchem assays: 1829 (Project Summary), 1814 (Primary HTS)]; type: functional
[30] = Luminescence Cell-Based Dose Confirmation HTS to Identify Activators of 5'UTR Stem-Loop Driven Alpha-Synuclein mRNA Translation in H4 Neuroglioblastoma Cells. [Related pubchem assays: 1829 (Project Summary), 1814 (Primary HTS)]; type: functional
Vero [31] = test: mammalian cell viability reduction – secondary assay, cytotoxicity control for West Nile virus antiviral project, dose response (AID 1650); type: functional; settings: Chlorocebus sabaeus
Vero [32] = test: cells; type: functional; settings: Chlorocebus sabaeus

T1 sequence (Q92731 whole entry): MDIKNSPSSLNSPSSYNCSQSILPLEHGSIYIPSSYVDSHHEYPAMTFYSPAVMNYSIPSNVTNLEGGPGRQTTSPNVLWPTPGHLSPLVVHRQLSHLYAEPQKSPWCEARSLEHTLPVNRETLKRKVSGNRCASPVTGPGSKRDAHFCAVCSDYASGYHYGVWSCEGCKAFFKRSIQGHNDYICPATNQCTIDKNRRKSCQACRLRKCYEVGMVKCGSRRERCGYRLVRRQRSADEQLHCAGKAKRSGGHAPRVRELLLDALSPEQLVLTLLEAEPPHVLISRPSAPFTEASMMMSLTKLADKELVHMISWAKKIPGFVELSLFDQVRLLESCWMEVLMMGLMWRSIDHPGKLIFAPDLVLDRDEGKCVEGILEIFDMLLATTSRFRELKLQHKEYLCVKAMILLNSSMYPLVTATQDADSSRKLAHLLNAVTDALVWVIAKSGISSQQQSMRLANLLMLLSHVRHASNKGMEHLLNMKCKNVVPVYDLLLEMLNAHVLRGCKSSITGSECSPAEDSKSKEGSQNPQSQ

## CN(C)c1ccc(NC(=O)N2CCOCC2)cc1
Estrogen receptor beta [1]
  IC50: 0.0633 µM (not active)

## CCOC(=O)Cn1cnc2sc3c(c2c1=O)CCC3
Estrogen receptor beta [1]
  IC50: 106 µM (not active)
Estrogen receptor beta [2]
  IC50: 3.62 µM (active)

## O=C1CC(c2ccccc2)c2cc(O)ccc2O1 (stereo unspecified)
[3]
  EC50: 34.8 µM (active)
[4]
  EC50: 32 µM (active)
[5]
  IC50: > 100 µM (not active)

## CN1CCN(CCCN2c3ccccc3Sc3ccc(C(F)(F)F)cc32)CC1
[6]
  IC50: 2.63 µM (active)
[7]
  IC50: 2.36 µM (active)
[8]
  IC50: 2.81 µM (active)
[9]
  IC50: 7.35 µM (inactive)
[10]
  EC50: 11.9 µM (active)
[3]
  EC50: 11.7 µM (active)
[11]
  IC50: > 40 µM (inactive)
[12]
  IC50: 2.72 µM (active)
[13]
  IC50: 7.22 µM (inactive)
[14]
  IC50: > 20 µM (inactive)
[15]
  IC50: 3.23 µM (active)
[16]
  IC50: > 40 µM (inactive)
[17]
  IC50: 0.565 µM (active)
[4]
  EC50: 11.9 µM (active)
[18]
  EC50: 7.72 µM (active)

## COc1ccccc1Nc1nn2c(=O)c3ccc(C(=O)NCc4cccnc4)cc3nc2s1
[19]
  IC50: 4.9 µM (active)

## O=C(Nc1cccc(Cl)c1)c1ccc(O)nn1
[20]
  EC50: 3.4 µM (active)

## Cc1ccc(C(=O)N/N=C\c2cc(Br)c(Br)o2)cn1
[21]
  CC50: 18.2 µM (active)
Protein RecA
  EC50: > 380 µM (inconclusive)
[22]
  IC50: 46.3 µM (inactive)
[23]
  IC50: > 66 µM (inactive)

## COc1ccc(Br)cc1CNc1ccc(O)cc1
[21]
  CC50: > 40 µM (active)
Protein Tat
  IC50: 46.7 µM (inconclusive)
[24]
  IC50: 26.8 µM (active)

## O=C(CSc1nnc(C2CCCCC2)n1Cc1ccccc1)NCc1ccco1
[25]
  IC50: > 100 µM (active)
Protein Tat
  IC50: > 100 µM (active)

## CN1C(=O)C2(OCC(COc3ccc(Cl)cc3)O2)c2ccccc21 (stereo unspecified)
[10]
  EC50: > 20 µM (not active)
[18]
  EC50: > 20 µM (not active)

## CCCCSc1nc2c(cnn2-c2ccccc2)c(=O)n1N
H4
  EC50: > 120 µM (not active)
[26]
  EC50: 0.646 µM (active)
[27]
  EC50: 0.348 µM (active)
[28]
  EC50: < 0.1 µM (active)
[29]
  EC50: 0.347 µM (active)

## Fc1ccccc1NC(=S)N/N=C/c1ccccc1Br
H4
  EC50: > 120 µM (not active)
[26]
  EC50: 5.76 µM (active)
[30]
  EC50: 0.219 µM (active)
[27]
  EC50: 0.578 µM (active)
[28]
  EC50: < 0.1 µM (active)
[29]
  EC50: 0.376 µM (active)

## O=C(Nc1ccc2c(c1)OCO2)c1ccncc1
[20]
  EC50: 25.3 µM (not active)

## CC(=O)OC1CC[C@]2(C#N)[C@H]3CC[C@]4(C)[C@H](C5C=CC(=O)O5)CCC4(O)C3CCC2(O)C1 (stereo partly specified)
Vero [31]
  CC50: 13.5 µM (active)
Vero [32]
  CC50: 18.5 µM (active)

## CCC(Sc1nc(O)cc(-c2ccccc2)n1)C(=O)O (stereo unspecified)
[25]
  IC50: > 100 µM (active)

## Cc1ccc(Nc2nc(NCCO)c3ccccc3n2)cc1C
Vero [31]
  CC50: 13.4 µM (active)
[14]
  IC50: > 20 µM (inactive)
